# Reference: paper PMC12116762, “Topobexin targets the Topoisomerase II ATPase domain for beta isoform-selective inhibition and anthracycline cardioprotection” (Nature Communications, 2025)
# pIC50: −log10 of the molar value. “And” between values parts separate entries of the source, which are not always exact repeats. Identical values can stand only once.
# Tests used:
# [1] = molecular target: T1, recombinant human TOP2B (Homo sapiens, UniProt Q02880); test: DNA decatenation assay, recombinant TOP2B; type: biochemical; details: for SRbeta (SRTOP2B), decatenation activity: TOP2A IC50 divided by TOP2B IC50; for pIC50: enzyme expressed in HEK293F, n=3
# T1 construct: Using recombinant full-length human TOP2A and TOP2B enzymes; YFP (N, cleaved yes); made in house; host or cells: HEK293F
# T1 sequence (Q02880 1-1621 isoform Q02880-2): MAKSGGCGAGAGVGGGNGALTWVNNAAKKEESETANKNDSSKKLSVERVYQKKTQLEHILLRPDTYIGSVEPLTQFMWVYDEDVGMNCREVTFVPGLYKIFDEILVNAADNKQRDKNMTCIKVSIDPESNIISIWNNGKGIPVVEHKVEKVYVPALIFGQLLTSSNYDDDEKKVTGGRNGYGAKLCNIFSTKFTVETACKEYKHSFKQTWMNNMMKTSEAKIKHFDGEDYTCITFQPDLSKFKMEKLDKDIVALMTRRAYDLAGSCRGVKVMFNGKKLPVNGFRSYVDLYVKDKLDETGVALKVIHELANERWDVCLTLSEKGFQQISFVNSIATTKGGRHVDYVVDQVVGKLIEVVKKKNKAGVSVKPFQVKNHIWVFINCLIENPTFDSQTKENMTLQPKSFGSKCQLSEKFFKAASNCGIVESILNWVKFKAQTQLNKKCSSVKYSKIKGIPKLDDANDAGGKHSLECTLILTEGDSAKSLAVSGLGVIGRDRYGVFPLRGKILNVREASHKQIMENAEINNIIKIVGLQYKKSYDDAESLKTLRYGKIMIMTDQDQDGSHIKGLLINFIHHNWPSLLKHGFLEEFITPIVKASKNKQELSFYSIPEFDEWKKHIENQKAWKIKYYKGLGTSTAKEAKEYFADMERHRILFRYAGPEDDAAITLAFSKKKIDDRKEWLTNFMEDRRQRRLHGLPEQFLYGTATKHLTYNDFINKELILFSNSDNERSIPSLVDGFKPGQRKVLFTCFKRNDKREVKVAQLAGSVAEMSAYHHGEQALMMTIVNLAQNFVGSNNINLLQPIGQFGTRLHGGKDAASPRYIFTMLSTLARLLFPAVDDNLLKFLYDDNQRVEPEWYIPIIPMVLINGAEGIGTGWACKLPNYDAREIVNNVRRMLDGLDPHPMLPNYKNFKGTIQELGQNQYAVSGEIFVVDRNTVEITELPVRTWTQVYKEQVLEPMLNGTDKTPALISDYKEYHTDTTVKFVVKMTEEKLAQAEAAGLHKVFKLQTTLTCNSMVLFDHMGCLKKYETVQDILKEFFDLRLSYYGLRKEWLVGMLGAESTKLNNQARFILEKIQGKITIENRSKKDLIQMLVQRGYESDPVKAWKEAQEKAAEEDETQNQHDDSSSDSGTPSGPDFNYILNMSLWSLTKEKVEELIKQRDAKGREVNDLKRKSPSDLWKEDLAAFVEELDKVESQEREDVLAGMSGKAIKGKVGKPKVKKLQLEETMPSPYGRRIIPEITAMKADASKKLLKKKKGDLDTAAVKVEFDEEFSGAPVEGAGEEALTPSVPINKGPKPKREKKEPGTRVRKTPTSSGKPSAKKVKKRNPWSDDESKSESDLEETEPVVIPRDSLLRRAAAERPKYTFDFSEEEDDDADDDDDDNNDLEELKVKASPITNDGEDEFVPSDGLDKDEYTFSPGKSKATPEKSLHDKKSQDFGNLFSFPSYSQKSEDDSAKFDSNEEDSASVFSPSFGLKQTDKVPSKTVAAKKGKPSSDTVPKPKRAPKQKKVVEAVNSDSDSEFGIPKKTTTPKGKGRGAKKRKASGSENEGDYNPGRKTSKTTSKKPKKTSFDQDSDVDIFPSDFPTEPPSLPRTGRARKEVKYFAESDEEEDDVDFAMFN
# Description: The human topoisomerase II decatenation assay was performed to determine the inhibitory effects of BNS-22 and new compounds as previously described with minor modifications[14],[36]. The assay was performed using recombinant human TOP2A or TOP2B generated using the HEK293F YFP-tag expression system as previously described[18],[19],[36]. Briefly, plasmids encoding YFP-TOP2A or YFP-TOP2B were transfected into HEK293F cells (Catalog number 11625019, Thermofisher Scientific), and TOP2 proteins were isolated from cell lysates by anti-YFP nanobody affinity chromatography. After elution by TEV protease cleavage, TOP2 proteins were FPLC purified by sequential cation exchange and size exclusion chromatography. Plasmid encoding TOP2B C88Y was generated by round-the-horn PCR mutagenesis and the sequence was verified by full-plasmid sequencing. Purified TOP2 proteins were stored in a storage buffer containing 20 mM HEPES pH 7.5, 500 mM NaCl, 0.5 mM TCEP, 25% (v/v) glycerol at -80 °C. For decatenation assays, purified TOP2 proteins were incubated with 200 ng kDNA (Topogen) in a reaction buffer containing 50 mM Tris−HCl (pH 8), 100 mM NaCl, 10 mM MgCl2, 0.5 mM DTT, 2 mM ATP, 0.1 mM tris(2-carboxyethyl)phosphine (TCEP), 5% (v/v) glycerol, 70 μg/mL bovine serum albumin, and 1/10 volume of each compound diluted in 10% DMSO (final DMSO concentration 1%) for 40 min at 37 °C. The reaction was then stopped by the addition of gel loading buffer (0.5 volumes of 60% (w/v) glycerol, 60 mM EDTA, 20 mM Tris−HCl (pH 7.5), 0.5 mg/mL bromophenol blue) and the samples were placed on ice. Reaction products were resolved by agarose gel electrophoresis in TBE buffer containing GelRed stain (Biotium). Gels were visualized using an iBright CL1000 (Thermofisher Scientific). Band intensities were quantified using FIJI, and the signal of the treated samples was normalized to the value of the control (untreated sample; 100%) present on the same gel. The normalized signal of three independent measurements was then expressed as mean ± SD. Each presented data point was obtained from distinct sample. Normalized values were plotted as a function of inhibitor concentration to determine IC50 values by nonlinear regression with variable slope using Prism 9 (GraphPad).
# [2] = system: neonatal rat ventricular cardiomyocytes (NVCM); test: Protection against DAU-induced cytotoxicity (LDH release) in NVCM; type: cell-based; design: key to Suppl.Fig.3 DAU-induced cytotoxicity (LDH release) in NVCM, mean of independent replicates / LDH release (DAU-induced cytotoxicity), mean of independent replicates: % of total LDH activity; details: for LDH release: independent replicates
# Outline: (§1)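 Primary neonatal Wistar rat cardiomyocytes in serum- and pyruvate-free DMEM/F12 were pretreated with compound 3 h, then co-incubated 3 h with DAU (1.2 µM), or without DAU for inherent toxicity, then given a 48 h drug-free follow-up. Medium LDH activity (NAD+ reduction at 340 nm) expressed as % of total LDH.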
# [3] = system: neonatal rat ventricular cardiomyocytes (NVCM); test: Inherent toxicity (LDH release) in NVCM; type: cell-based; design: key to LDH release (inherent toxicity), mean of independent replicates: % of total LDH activity; details: NVCM; for LDH release (inherent toxicity), mean of independent replicates: Suppl.Fig.4
# Outline: as §1
smiles,measurement,setting,value
CCCc1cc(=O)oc2c(C(=O)N3CCCc4ccccc43)c(OCCO)ccc12 [5c],remaining activity at 0.059 µM,"[1]; 0.059 μM, independent replicates, read-out: Normalized % TOP2B activity, decatenation",106%
same,remaining activity at 0.117 µM,"[1]; 0.117 μM, independent replicates, read-out: Normalized % TOP2B activity, decatenation",112%
same,remaining activity at 0.938 µM,"[1]; 0.938 μM, independent replicates, read-out: Normalized % TOP2B activity, decatenation",66.9%
same,remaining activity at 1.875 µM,"[1]; 1.875 μM, independent replicates, read-out: Normalized % TOP2B activity, decatenation",29.8%
same,"SRbeta (SRTOP2B), decatenation activity",[1],2.2
same,pIC50,[1],5.84
same,concentration providing significant cardioprotection,"[2]; NVCM, DAU 1.2 µM",≥ 0.1 µM
same,minimal effective concentration,"[2]; Rattus norvegicus, Cardiomyocyte, NVCM, protection against DAU 1.2 µM, n=4, read-out: LEC = lowest effective concentration",0.1 µM
same,"LDH release, mean",[2]; compound 0.01 µM + DAU 1.2 µM,43.3429 % of total LDH
same,"Suppl.Fig.3 DAU-induced cytotoxicity (LDH release) in NVCM, mean of independent replicates",[2]; compound 0.01 µM + DAU 1.2 µM,43.3429
same,LDH release,[2]; compound 0.01 µM + DAU 1.2 µM,38.8043 % of total LDH and 44.6863 % of total LDH and 52.1182 % of total LDH and 37.7626 % of total LDH
same,"LDH release, mean",[2]; compound 0.1 µM + DAU 1.2 µM,37.9008 % of total LDH
same,"Suppl.Fig.3 DAU-induced cytotoxicity (LDH release) in NVCM, mean of independent replicates",[2]; compound 0.1 µM + DAU 1.2 µM,37.9008
same,LDH release,[2]; compound 0.1 µM + DAU 1.2 µM,31.4509 % of total LDH and 46.2465 % of total LDH and 39.969 % of total LDH and 33.9368 % of total LDH
same,"LDH release, mean",[2]; compound 1 µM + DAU 1.2 µM,32.4872 % of total LDH
same,"Suppl.Fig.3 DAU-induced cytotoxicity (LDH release) in NVCM, mean of independent replicates",[2]; compound 1 µM + DAU 1.2 µM,32.4872
same,LDH release,[2]; compound 1 µM + DAU 1.2 µM,27.3874 % of total LDH and 32.0086 % of total LDH and 42.6349 % of total LDH and 27.9179 % of total LDH
same,"LDH release, mean",[2]; compound 10 µM + DAU 1.2 µM,26.8851 % of total LDH
same,"Suppl.Fig.3 DAU-induced cytotoxicity (LDH release) in NVCM, mean of independent replicates",[2]; compound 10 µM + DAU 1.2 µM,26.8851
same,LDH release,[2]; compound 10 µM + DAU 1.2 µM,22.9974 % of total LDH and 24.3605 % of total LDH and 29.85 % of total LDH and 30.3325 % of total LDH
same,"LDH release, mean",[2]; compound 30 µM + DAU 1.2 µM,27.5762 % of total LDH
same,"Suppl.Fig.3 DAU-induced cytotoxicity (LDH release) in NVCM, mean of independent replicates",[2]; compound 30 µM + DAU 1.2 µM,27.5762
same,LDH release,[2]; compound 30 µM + DAU 1.2 µM,24.4062 % of total LDH and 28.0233 % of total LDH and 28.184 % of total LDH and 29.6914 % of total LDH
same,"LDH release, mean",[2]; compound 100 µM + DAU 1.2 µM,31.1384 % of total LDH
same,"Suppl.Fig.3 DAU-induced cytotoxicity (LDH release) in NVCM, mean of independent replicates",[2]; compound 100 µM + DAU 1.2 µM,31.1384
same,LDH release,[2]; compound 100 µM + DAU 1.2 µM,22.9096 % of total LDH and 39.1124 % of total LDH and 31.4385 % of total LDH and 31.093 % of total LDH
same,LTC = lowest toxic concentration,"[3]; compound alone, n=4",100 µM
same,"LDH release (inherent toxicity), mean of independent replicates",[3]; compound alone 0.01 µM,14.5952
same,"LDH release (inherent toxicity), mean of independent replicates",[3]; compound alone 0.1 µM,14.7832
same,"LDH release (inherent toxicity), mean of independent replicates",[3]; compound alone 1 µM,14.0641
same,"LDH release (inherent toxicity), mean of independent replicates",[3]; compound alone 10 µM,18.571
same,"LDH release (inherent toxicity), mean of independent replicates",[3]; compound alone 30 µM,18.0914
same,"LDH release (inherent toxicity), mean of independent replicates",[3]; compound alone 100 µM,21.5856
"COc1cccc2c1C(=O)c1c(O)c3c(c(O)c1C2=O)C[C@@](O)(C(C)=O)C[C@@H]3O[C@H]1C[C@H](N)[C@H](O)[C@H](C)O1 [DAU, daunorubicin, reference compound]","LDH release, mean","[2]; DAU 1.2 µM alone, 48 h",50.9581 % of total LDH and 40.9598 % of total LDH and 38.3367 % of total LDH
same,LDH release,"[2]; DAU 1.2 µM alone, 48 h",42.9177 % of total LDH and 49.9715 % of total LDH and 51.9004 % of total LDH and 59.0427 % of total LDH and 48.4333 % of total LDH and 43.9079 % of total LDH and 36.1066 % of total LDH and 35.3914 % of total LDH and 37.5065 % of total LDH and 36.8503 % of total LDH and 39.0464 % of total LDH and 39.9436 % of total LDH
same,"LDH release (DAU-induced cytotoxicity), mean of independent replicates","[2]; DAU 1.2 µM alone, NVCM, Suppl.Fig.6b",49.0741 and 44.6225 and 40.9598 and 43.4866
same,"LDH release (DAU-induced cytotoxicity), mean of independent replicates","[2]; DAU 1.2 µM alone, NVCM, Suppl.Fig.8a",50.2853
same,"Suppl.Fig.3 DAU-induced cytotoxicity (LDH release) in NVCM, mean of independent replicates","[2]; DAU 1.2 µM alone, one value per experiment set (compound block)",52.5555 and 50.9581 and 43.2031 and 52.6717 and 39.8455 and 40.6658 and 38.8384 and 49.4177 and 40.4688 and 38.0883 and 38.3367 and 37.1578 and 50.485 and 47.9698 and 52.8733 and 52.0892 and 42.039 and 50.4287
C[C@@H](CN1CC(=O)NC(=O)C1)N1CC(=O)NC(=O)C1 [dexrazoxane],remaining activity at 0.029 µM,"[1]; 0.029 μM, independent replicates, read-out: Normalized % TOP2B activity, decatenation",88.8%
same,remaining activity at 0.469 µM,"[1]; 0.469 μM, independent replicates, read-out: Normalized % TOP2B activity, decatenation",75.2%
same,remaining activity at 15 µM,"[1]; 15.000 μM, independent replicates, read-out: Normalized % TOP2B activity, decatenation",12.9%
same,remaining activity at 30 µM,"[1]; 30.000 μM, independent replicates, read-out: Normalized % TOP2B activity, decatenation",5.87%
same,"SRbeta (SRTOP2B), decatenation activity",[1],0.75
same,pIC50,[1],5.35
same,"concentration needed for similar extent of protection, relative to topobexin (9)",[2]; NVCM,at least 10 ×
same,"LDH release (protection against DAU), mean of independent replicates","[2]; compound 0.1 µM + DAU 1.2 µM, NVCM, Suppl.Fig.8a",48.0486
same,"LDH release (protection against DAU), mean of independent replicates","[2]; compound 1 µM + DAU 1.2 µM, NVCM, Suppl.Fig.8a",43.2962
same,"LDH release (protection against DAU), mean of independent replicates","[2]; compound 10 µM + DAU 1.2 µM, NVCM, Suppl.Fig.8a",41.8711
same,"LDH release (protection against DAU), mean of independent replicates","[2]; compound 100 µM + DAU 1.2 µM, NVCM, Suppl.Fig.8a",36.8821
